The source of these data is patent US11053250B2, “Pyrrolo[1,2-b]pyridazine derivatives” (Gilead Sciences, Inc., priority 2018, dated 2021).

In one test the test system is TNFα. The test is described as follows: IRAK4 Monocyte TNFα Cell Based Assay. Particulars: cryopreserved human monocytes, LPS 50 pg/ml stimulation, TNFα by TR-FRET. As for the experimental part: The cell suspension was then plated at a density of 5,000 cells/well onto black 384 well Greiner clear bottom plates. Plates were pre-spotted with test compounds and serially diluted in DMSO where 40 nL/well were delivered using the Echo 550 acoustic liquid dispenser (Labcyte®) for a final DMSO concentration of 0.1%. Plated cells were treated with compound for 1 hour at 37° C. Cells were then stimulated with 50 pg/ml of LPS (Sigma) excluding outside columns of plate used for unstimulated cell control wells. Cells were incubated for an additional 4 hours at 37° C. Cells were then spun out of the media and 5 μl of sample were taken and analyzed for total TNFα content using the TR-FRET Human TNFα detection system (CisBio). This system utilizes two labeled antibodies (cryptate and XL665) that bind to two different epitopes of the TNFα molecule and produce FRET signal proportional to the concentration of TNFα in the sample. Detection antibodies are mixed 50:50 and 5 μL were dispensed into each well. Plates were covered with clear seals and incubated at room temp overnight. The following morning plates were read using an Envision 2103 Multilabeled reader (PerkinElmer) with excitation/emission/FRET emission at 340 nm/615 nm/665 nm, respectively. Fluorescence intensities at 615 nm and 665 nm emission wavelengths were expressed as a ratio (665 nm/615 nm). Percent of control was calculated as follows: % Control=100×(RatioSample−Ratio0% stimulation)/(Ratio100% Stimulation−Ratio0% stimulation) where unstimulated cells (0% stimulation) were the negative control and stimulated cells (100% stimulation) were used as the positive control.

The target of a further test is IRAK4 enzyme (Homo sapiens (Human), UniProt Q9NWZ3). The test is described as follows: IRAK4 Biochemical Assay (TR-FRET/HTRF). Particulars: 0.75 nM IRAK4, 500 μM ATP, STK1 peptide. As for the experimental part:
IRAK4 enzyme (Carna Biosciences, Chuo-ku, Kobe, Japan) activity was measured by detecting phosphorylated peptide substrate formation using an antibody against the phosphorylated peptide substrate. This is a time-resolved fluorescence resonance energy transfer (TR-FRET) immunoassay, based on the STK1 KinEASE Assay (Cisbio, Bedford, Mass.). The assay was designed as a simple two-step, endpoint assay (a 5 μl enzyme reaction followed by 5 μl stop and detect Solution) performed in ProxiPlate-384 Plus plates (Perkin Elmer, Waltham, Mass.). Staurosporine, a non-selective kinase inhibitor was used as a positive control. Compounds diluted in DMSO were spotted into 384 well plates using a Labcyte® Echo 550 Liquid Handling System prior to addition of IRAK4 enzyme and peptide substrate. Reaction solutions were delivered using a Multi-Flo (Bio-Tek Instruments). The enzyme and peptide solution was incubated with compound for 15 minutes at room temp before the reaction was initiated by the addition of ATP. The standard 5 μl reaction mixture contained 500 μM ATP, 2 μM peptide (STK1 Peptide), 0.75 nM of IRAK4 in reaction buffer (50 mM HEPES, pH 7.0, 0.02% NaN3, 0.01% BSA, 0.1 mM Orthovanadate, 5 mM MgCl2, 0.025% NP-40, 1 mM DTT). After 120 min of incubation at room temperature, 5 μl of Stop and Detect Solution (1:100 Cryptate labeled anti-phosphorylated peptide antibody solution and 125 nM Tracer in a 50 mM HEPES pH 7.0 detection buffer containing sufficient EDTA) was added. The plate was then further incubated for 60 minutes at room temperature and read on Envision 2103 Multilabeled reader (PerkinElmer) with excitation/emission/FRET emission at 340 nm/615 nm/665 nm, respectively. Fluorescence intensities at 615 nm and 665 nm emission wavelengths were expressed as a ratio (665 nm/615 nm). Percentage of inhibition was calculated as below: % Inhibition=100×(RatioSample−Ratio0% Inhibition)/(Ratio100% Inhibition−Ratio0% Inhibition)
The 0% inhibition value comes from control wells lacking inhibitor. The 100% inhibition value comes from control wells containing a saturating amount of known inhibitor staurosporine.

Sequence of IRAK4 enzyme (Q9NWZ3 whole entry): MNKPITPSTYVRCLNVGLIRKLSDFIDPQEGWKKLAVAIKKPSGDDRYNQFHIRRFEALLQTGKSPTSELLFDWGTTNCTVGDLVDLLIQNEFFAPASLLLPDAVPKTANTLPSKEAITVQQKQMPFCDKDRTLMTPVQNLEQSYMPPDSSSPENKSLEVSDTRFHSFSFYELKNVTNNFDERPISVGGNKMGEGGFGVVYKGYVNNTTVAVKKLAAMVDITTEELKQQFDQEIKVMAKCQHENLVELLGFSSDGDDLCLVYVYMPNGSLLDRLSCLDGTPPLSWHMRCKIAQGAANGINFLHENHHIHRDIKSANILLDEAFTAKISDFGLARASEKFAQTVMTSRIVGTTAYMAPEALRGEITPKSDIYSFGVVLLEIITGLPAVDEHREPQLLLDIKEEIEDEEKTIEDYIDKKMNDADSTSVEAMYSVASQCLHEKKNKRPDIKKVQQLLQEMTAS

For `COC(=O)Cn1cc(-c2cnc(-c3ccc4cc(C#N)cnn34)cc2NC(C)C)nn1` [Compound 56, methyl 2-(4-(6-(3-cyanopyrrolo[1,2-b]pyridazin-7-yl)-4-(isopropylamino)pyridin-3-yl)-1H-1,2,3-triazol-1-yl)acetate], the EC50 in the test with TNFα (Monocyte) was determined as 42 nM. Besides, on IRAK4 enzyme, the IC50 was below 1 nM.
On to `CNc1cc(-c2ccc3cc(C#N)cnn23)ncc1-c1cn(CC(F)(F)F)nn1` [Compound 24, 7-(4-(methylamino)-5-(1-(2,2,2-trifluoroethyl)-1H-1,2,3-triazol-4-yl)pyridin-2-yl)pyrrolo[1,2-b]pyridazine-3-carbonitrile], for which, in the test with TNFα (Monocyte), the EC50 amounted to 302 nM. The IC50 on IRAK4 enzyme was found to be 11 nM.
Regarding `CC(C)(O)[C@H](F)Cn1cc(-c2cnc(-c3ccc4cc(C#N)cnn34)cc2N[C@H]2CC[C@H](c3cnn(C(F)F)c3)CC2)nn1` [Compound 15, 7-(4-(((1r,4R)-4-(1-(difluoromethyl)-1H-pyrazol-4-yl)cyclohexyl)amino)-5-(1-((R)-2-fluoro-3-hydroxy-3-methylbutyl)-1H-1,2,3-triazol-4-yl)pyridin-2-yl)pyrrolo[1,2-b]pyridazine-3-carbonitrile], the EC50 with TNFα was 18 nM. The half-maximal inhibitory concentration (IC50) against IRAK4 enzyme came to 3 nM.
In turn, `CC(C)Nc1cc(-c2ccc3cc(C#N)cnn23)ncc1-c1cn(C2CCOCC2)nn1` [Compound 59, 7-(4-(isopropylamino)-5-(1-(tetrahydro-2H-pyran-4-yl)-1H-1,2,3-triazol-4-yl)pyridin-2-yl)pyrrolo[1,2-b]pyridazine-3-carbonitrile] registered an EC50 in the test on TNFα (Monocyte) of 58 nM. Also, the IC50 against IRAK4 enzyme was below 1 nM.
For the compound `C[C@H](C#N)Nc1cc(-c2ccc3cc(C#N)cnn23)ncc1-c1cn(C[C@@H](F)C(C)(C)O)nn1` [Compound 1, 7-(4-(((R)-1-cyanoethyl)amino)-5-(1-((R)-2-fluoro-3-hydroxy-3-methylbutyl)-1H-1,2,3-triazol-4-yl)pyridin-2-yl)pyrrolo[1,2-b]pyridazine-3-carbonitrile], a half-maximal effect with TNFα (Monocyte) (EC50) was put at 12 nM. The same compound displayed an IC50 against IRAK4 enzyme below 1 nM.
`CC(C)(O)[C@H](F)Cn1cc(-c2cnc(-c3ccc4cc(C#N)cnn34)cc2N[C@H]2CC[C@H](c3nnc(C(F)F)o3)CC2)nn1` [Compound 3, 7-(4-(((1r,4R)-4-(5-(difluoromethyl)-1,3,4-oxadiazol-2-yl)cyclohexyl)amino)-5-(1-((R)-2-fluoro-3-hydroxy-3-methylbutyl)-1H-1,2,3-triazol-4-yl)pyridin-2-yl)pyrrolo[1,2-b]pyridazine-3-carbonitrile] yielded an EC50 with TNFα of 20 nM. The compound further had an IC50 against IRAK4 enzyme of 2 nM.
In the test with TNFα (Monocyte), `CNc1cc(-c2ccc3cc(C#N)cnn23)ncc1-c1cn(CC(F)(F)C(C)(C)O)nn1` [Compound 28, 7-(5-(1-(2,2-difluoro-3-hydroxy-3-methylbutyl)-1H-1,2,3-triazol-4-yl)-4-(methylamino)pyridin-2-yl)pyrrolo[1,2-b]pyridazine-3-carbonitrile] showed an EC50 of 94 nM. In addition, the midpoint of inhibition against IRAK4 enzyme, the IC50, lay at 3 nM.
The compound `COC(=O)NCC1CC(Nc2cc(-c3ccc4cc(C#N)cnn34)ncc2-c2cn(C3CCC(NC(=O)OC(C)(C)C)CC3)nn2)C1` [Compound 22, methyl (((1R,3r)-3-((5-(1-((1r,4R)-4-((tert-butoxycarbonyl)amino)cyclohexyl)-1H-1,2,3-triazol-4-yl)-2-(3-cyanopyrrolo[1,2-b]pyridazin-7-yl)pyridin-4-yl)amino)cyclobutyl)methyl)carbamate] returned an EC50 in the test on TNFα of 187 nM. The same compound gave an IC50 at IRAK4 enzyme of 1 nM.
For `CC(C)(O)[C@H](F)Cn1cc(-c2cnc(-c3ccc4cc(C#N)cnn34)cc2NCC#N)nn1` [Compound 2, (R)-7-(4-((cyanomethyl)amino)-5-(1-(2-fluoro-3-hydroxy-3-methylbutyl)-1H-1,2,3-triazol-4-yl)pyridin-2-yl)pyrrolo[1,2-b]pyridazine-3-carbonitrile], the EC50 in the test on TNFα (Monocyte) was 15 nM. Also, the IC50 at IRAK4 enzyme stood at 1 nM.
In the test on TNFα (Monocyte), `CC(C)Nc1cc(-c2ccc3cc(C#N)cnn23)ncc1-c1cn(C2(C(F)(F)F)CC2)nn1` [Compound 58, 7-(4-(isopropylamino)-5-(1-(1-(trifluoromethyl)cyclopropyl)-1H-1,2,3-triazol-4-yl)pyridin-2-yl)pyrrolo[1,2-b]pyridazine-3-carbonitrile] registered an EC50 of 1240 nM. In addition, the IC50 on IRAK4 enzyme turned out to be 12 nM.
In the test with TNFα, `CNc1cc(-c2ccc3cc(C#N)cnn23)ncc1-c1cn([C@H]2CC[C@H](NC(=O)C3CC3)CC2)nn1` [Compound 20, N-((1r,4r)-4-(4-(6-(3-cyanopyrrolo[1,2-b]pyridazin-7-yl)-4-(methylamino)pyridin-3-yl)-1H-1,2,3-triazol-1-yl)cyclohexyl)cyclopropanecarboxamide] returned an EC50 of 62 nM. In addition, half-maximal inhibition on IRAK4 enzyme (IC50) was put at 1 nM.
In turn, `CC(C)(O)[C@H](F)Cn1cc(-c2cnc(-c3ccc4cc(C#N)cnn34)cc2NC23CCC(O)(CC2)CC3)nn1` [Compound 25, (R)-7-(5-(1-(2-fluoro-3-hydroxy-3-methylbutyl)-1H-1,2,3-triazol-4-yl)-4-((4-hydroxybicyclo[2.2.2]octan-1-yl)amino)pyridin-2-yl)pyrrolo[1,2-b]pyridazine-3-carbonitrile] showed an EC50 in the test with TNFα (Monocyte) of 3 nM. This compound yielded an IC50 on IRAK4 enzyme below 1 nM.
In the test with TNFα, `COC(=O)NC[C@H]1C[C@H](Nc2cc(-c3ccc4cc(C#N)cnn34)ncc2-c2cn(CC(=O)N3CC(F)(F)C3)nn2)C1` [Compound 14, methyl (((1r,3r)-3-((2-(3-cyanopyrrolo[1,2-b]pyridazin-7-yl)-5-(1-(2-(3,3-difluoroazetidin-1-yl)-2-oxoethyl)-1H-1,2,3-triazol-4-yl)pyridin-4-yl)amino)cyclobutyl)methyl)carbamate] had an EC50 of 18 nM. Moreover, at IRAK4 enzyme, the IC50 is below 1 nM.
`COC(=O)NC[C@H]1C[C@H](Nc2cc(-c3ccc4cc(C#N)cnn34)ncc2-c2cn(C)nn2)C1` [Compound 33, methyl (((1r,3r)-3-((2-(3-cyanopyrrolo[1,2-b]pyridazin-7-yl)-5-(1-methyl-1H-1,2,3-triazol-4-yl)pyridin-4-yl)amino)cyclobutyl)methyl)carbamate]: the half-maximal effective concentration (EC50) with TNFα amounted to 44 nM. In addition, at IRAK4 enzyme, the IC50 was below 1 nM.
In the test with TNFα (Monocyte), `CC(C)Nc1cc(-c2ccc3cc(C#N)cnn23)ncc1-c1cn(C[C@@H](F)C(C)(C)O)nn1` [Compound 49, (R)-7-(5-(1-(2-fluoro-3-hydroxy-3-methylbutyl)-1H-1,2,3-triazol-4-yl)-4-(isopropylamino)pyridin-2-yl)pyrrolo[1,2-b]pyridazine-3-carbonitrile] registered an EC50 of 30 nM. Further, the IC50 against IRAK4 enzyme is below 1 nM.
Turning to `Cn1cc(-c2cnc(-c3ccc4cc(C#N)cnn34)cc2NC23CCC(O)(CC2)CC3)nn1` [Compound 21, 7-(4-((4-hydroxybicyclo[2.2.2]octan-1-yl)amino)-5-(1-methyl-1H-1,2,3-triazol-4-yl)pyridin-2-yl)pyrrolo[1,2-b]pyridazine-3-carbonitrile], a half-maximal response in the test on TNFα (Monocyte) (EC50) required 9 nM. For the same compound, the IC50 on IRAK4 enzyme was below 1 nM.
In turn, `COC(=O)NCC1CC(Nc2cc(-c3ccc4cc(C#N)cnn34)ncc2-c2cn(C3CC(CO)C3)nn2)C1` [Compound 9, methyl (((1R,3r)-3-((2-(3-cyanopyrrolo[1,2-b]pyridazin-7-yl)-5-(1-((1r,3R)-3-(hydroxymethyl)cyclobutyl)-1H-1,2,3-triazol-4-yl)pyridin-4-yl)amino)cyclobutyl)methyl)carbamate] came in with an EC50 with TNFα of 16 nM. The 50% inhibitory concentration (IC50) on IRAK4 enzyme is below 1 nM.
